Source: patent US20220334101A1, “MODULATING EXTRACELLULAR MATRIX MOVEMENT” (Helmholtz Zentrum Muenchen - Deutsches Forschungszentrum …, priority 2019, published 2022)
Structures can show the parent of a compound that is named as a salt.

tested on: skin-fascia explants; assay: Scar-in-a-dish (SCAD) ex vivo skin-fascia explant assay, screening of Prestwick chemical library; format: cell-based, mouse; details: molecules of table 1 named as inhibitors of ECM movement
Excerpt: Post born Day 0 (P0) neonates of C57BL/6J wild type mouse were first sacrificed by decapitation. Then dorsal back skin was isolated to make 2 mm full thickness biopsies (0 2 mm, Stiefel) that included the epidermis, dermis and deep subcutaneous fascia layers. The whole skin tissue explant system is termed as scar-in-a-dish (SCAD) assay (Patent Application no. PLA17A13). The SCAD tissue was maintained in DMEM/F12 cell culture medium (Life Technologies) supplemented with 10% FBS (Life Technologies), 1% non-essential amino acid (Thermo Fisher), 1% Glutamax (Thermo Fisher), 1% penicillin and streptomycin (Thermo Fisher) in a 37° C. incubator supplied with […] and 5% CO2. Medium was changed every other day until day 5 when SCADs were collected and fixed for histology analysis. To be noticed, the excised skin was submerged […] in culture media, which confined the scar-prone fibroblasts to the explant and discouraged their adherence to the tissue culture plate.
The PCL provides an additional advantage as all chemicals are of stable physicochemical properties, show a high range of chemical diversity, and are with known bioavailability and safety data in humans. All these information helps to reduce the probability of screening low-quality hits and save the costs of preliminary screening process.
In order to accommodate to medium scale screening approach, the Inventors adapted the SCAD explant system into 96-well plate (Falcon) formats, with each well contained one biopsy. […] Plate and liquid handling were performed using a high-throughput screening platform system composed of a Sciclone G3 Liquid Handler from PerkinElmer (Waltham, Mass., USA). On Day 0 tissues were treated either with the respective compound (1 mM stock solution) dissolved in 100% dimethyl sulfoxide (DMSO, Carl Roth) or DMSO alone. 0.5 μl of compounds/DMSO were transferred with a 96-array head to 200 μl DMEM/F12 medium per well to keep the final DMSO concentrations at […]. Tissues were then incubated (37° C.; 5% CO2) for 72 h prior to a second round of compound treatment, which was performed by exchanging cell culture medium per well and transferring […] of compounds/DMSO into the fresh medium. After an incubation time of another 48 h (37° C.; 5% CO2) the tissues were harvested and fixed for histological processing and imaging.
Briefly, the Inventors excised 2-mm full thickness skin biopsies that included epidermis, dermis, and deep subcutaneous fascia layers from mouse backs (see Methods). Skin-fascia explants were submerged fascia-side up in culture media, to confine scar-prone fibroblasts to the explant and discourage their adherence to the tissue culture plate.
The Prestwick library has selected a diverse array of chemicals with strong physicochemical properties, with known bioavailability and clinical safety data. The library is an ideal place to start screening as it covers all major therapeutic chemical classes such as central nervous system, cardiovascular system, metabolism, and infectious diseases.

Row | SMILES | phenotype as inhibitor of ECM movement
1 | C=C1/C(=C\C=C2/CCC[C@]3(C)[C@@H]([C@H](C)CCCC(C)C)CC[C@@H]23)C[C@@H](O)C[C@@H]1O [Alfacalcidol] | anti-fibrotic phenotype
2 | CCC(C)(C)c1ccc(CC(C)CN2C[C@@H](C)O[C@@H](C)C2)cc1 (some centres unmarked) [Amorolfine hydrochloride] | anti-fibrotic phenotype
3 | CN1CCCC(n2nc(Cc3ccc(Cl)cc3)c3ccccc3c2=O)CC1 (centres unmarked) [Azelastine HCl] | anti-fibrotic phenotype
4 | CC1(C)S[C@@H]2[C@H](NC(=O)Cc3ccccc3)C(=O)N2[C@H]1C(=O)O.CC1(C)S[C@@H]2[C@H](NC(=O)Cc3ccccc3)C(=O)N2[C@H]1C(=O)O.c1ccc(CNCCNCc2ccccc2)cc1 [Benzathine benzylpenicillin] | anti-fibrotic phenotype
5 | C[N+](C)(CCOc1ccccc1)Cc1ccccc1.O=C([O-])c1cc2ccccc2cc1O [Bephenium hydroxynaphthoate] | anti-fibrotic phenotype
6 | CC(C)/N=c1\cc2n(-c3ccc(Cl)cc3)c3ccccc3nc-2cc1Nc1ccc(Cl)cc1 [Clofazimine] | anti-fibrotic phenotype
7 | CC(C)N(CCC(C(N)=O)(c1ccccc1)c1ccccn1)C(C)C (centres unmarked) [Disopyramide] | anti-fibrotic phenotype
8 | O=c1[nH]c2ccccc2n1CCCN1CCC(n2c(=O)[nH]c3cc(Cl)ccc32)CC1 [Domperidone] | anti-fibrotic phenotype
9 | CCN1CC(CCN2CCOCC2)C(c2ccccc2)(c2ccccc2)C1=O (centres unmarked) [Doxapram hydrochloride] | anti-fibrotic phenotype
10 | COc1cccc2c1C(=O)c1c(O)c3c(c(O)c1C2=O)C[C@@](O)(C(=O)CO)C[C@@H]3O[C@H]1C[C@H](N)[C@H](O)[C@H](C)O1 [Doxorubicin hydrochloride] | anti-fibrotic phenotype
11 | CC[C@]12CCCN3CCc4c(n(c5ccccc45)C(=O)C1)[C@@H]32 [Eburnamonine (−)] | anti-fibrotic phenotype
12 | CC(O)(P(=O)(O)O)P(=O)(O)O [Etidronic acid, disodium salt] | anti-fibrotic phenotype
13 | NC(N)=Nc1nc(CSCCC(N)=NS(N)(=O)=O)cs1 [Famotidine] | anti-fibrotic phenotype
14 | C[C@@H]1C[C@H]2[C@@H]3C[C@H](F)C4=CC(=O)C=C[C@]4(C)[C@@]3(F)[C@@H](O)C[C@]2(C)[C@@]1(O)C(=O)COC(=O)C(C)(C)C [Flumethasone pivalate] | anti-fibrotic phenotype
15 | CC1(C)O[C@@H]2C[C@H]3[C@@H]4C[C@H](F)C5=CC(=O)C=C[C@]5(C)[C@@]4(F)[C@@H](O)C[C@]3(C)[C@]2(C(=O)CO)O1 [Fluocinolone acetonide] | anti-fibrotic phenotype
16 | CCC(=O)O[C@]1(C(=O)SCF)[C@H](C)C[C@H]2[C@@H]3C[C@H](F)C4=CC(=O)C=C[C@]4(C)[C@@]3(F)[C@@H](O)C[C@@]21C [Fluticasone propionate] | anti-fibrotic phenotype
17 | CCCCN(CCCC)CCC(O)c1cc2c(Cl)cc(Cl)cc2c2cc(C(F)(F)F)ccc12 (centres unmarked) [Halofantrine hydrochloride] | anti-fibrotic phenotype
18 | Clc1cc(Cl)c(OCC#CI)cc1Cl [Haloprogin] | anti-fibrotic phenotype
19 | CC(=O)N(CC(O)CN(C(C)=O)c1c(I)c(C(=O)NCC(O)CO)c(I)c(C(=O)NCC(O)CO)c1I)c1c(I)c(C(=O)NCC(O)CO)c(I)c(C(=O)NCC(O)CO)c1I (centres unmarked) [Iodixanol, lodixanol] | anti-fibrotic phenotype

Row | SMILES | phenotype as inhibitor of ECM movement
20 | O=C(c1ccccc1)c1ccc2n1CCC2C(=O)O (centres unmarked) [Ketorolac tromethamine] | anti-fibrotic phenotype
21 | C[C@H](N)[C@H](O)c1ccc(O)c(O)c1 [Levonordefrin] | anti-fibrotic phenotype
22 | CC(=O)[C@H]1CC[C@H]2[C@@H]3C[C@H](C)C4=CC(=O)CC[C@]4(C)[C@H]3[C@@H](O)C[C@]12C [Medrysone] | anti-fibrotic phenotype
23 | COc1ccc2c(c1)N(C[C@H](C)CN(C)C)c1ccccc1S2.O=C(O)/C=C\C(=O)O [Methotrimeprazine maleat salt] | anti-fibrotic phenotype
24 | C[C@H]1NC(=O)NC1=O [Methylhydantoin-5-(D)] | anti-fibrotic phenotype
25 | CC[C@H](C)C(=O)O[C@H]1CCC=C2C=C[C@H](C)[C@H](CC[C@@H]3C[C@@H](O)CC(=O)O3)[C@H]21 [Mevastatin] | anti-fibrotic phenotype
26 | O=C1CC[C@@]2(O)[C@H]3Cc4ccc(O)c5c4[C@@]2(CCN3CC2CC2)[C@H]1O5 [Naltrexone hydrochloride dehydrate, Naltrexone hydrochloride dihydrate] | anti-fibrotic phenotype
27 | CN1CCOC(c2ccccc2)c2ccccc2C1 (centres unmarked) [Nefopam hydrochloride] | anti-fibrotic phenotype
28 | C#C[C@]1(O)CC[C@H]2[C@@H]3CCC4=C(CCC(=O)C4)[C@H]3CC[C@@]21C [Norethynodrel] | anti-fibrotic phenotype
29 | CCN(CC)CCc1nc(-c2ccccc2)no1.O=C(O)CC(O)(CC(=O)O)C(=O)O [Oxalamine citrate salt] | anti-fibrotic phenotype
30 | CCN1CCN(C(=O)N[C@@H](C(=O)N[C@@H]2C(=O)N3[C@@H]2SC(C)(C)[C@@H]3C(=O)O)c2ccccc2)C(=O)C1=O [Piperacillin sodium salt] | anti-fibrotic phenotype
31 | CC(C)(C)C(=O)OCOC(=O)[C@@H]1N2C(=O)[C@@H](NC(=O)[C@H](N)c3ccccc3)[C@H]2SC1(C)C [Pivampicillin] | anti-fibrotic phenotype
32 | CCCOc1cc(N)ccc1C(=O)OCCN(CC)CC [Propoxycaine hydrochloride] | anti-fibrotic phenotype
33 | NC(=O)c1cnccn1 [Pyrazinamide] | anti-fibrotic phenotype
34 | CCOc1cc(CC(=O)N[C@@H](CC(C)C)c2ccccc2N2CCCCC2)ccc1C(=O)O [Repaglinide] | anti-fibrotic phenotype
35 | COc1ccc(NS(=O)(=O)c2ccc(N)cc2)nn1 [Sulfamethoxypyridazine] | anti-fibrotic phenotype
36 | Nc1ccc(S(=O)(=O)Nc2ccnn2-c2ccccc2)cc1 [Sulfaphenazole] | anti-fibrotic phenotype
37 | Nc1ccc(S(=O)(=O)Nc2cnc3ccccc3n2)cc1 [Sulfaquinoxaline sodium salt] | anti-fibrotic phenotype
38 | [H]/N=C(/NCCCCC)N/N=C/c1c[nH]c2ccc(OC)cc12 [Tegaserod maleate] | anti-fibrotic phenotype

tested on: liver; assay: ECM (matrix) movement into liver wounds after electroporation injury, NHS-FITC matrix labelling; format: in vivo, mouse; details: filter paper with 100 nM solution on liver surface for 5 minutes, absence of wounds

Row | SMILES | recruitment / deposition of fluid matrix after local application
39 | CCCCC/C=C\C[C@@H](O)/C=C/C=C/C=C\[C@@H](O)CCCC(=O)O [LTB4] | forms new deposits of matrix
40 | CCCCC[C@H](O)/C=C/C=C\C=C\C=C\[C@@H](O)[C@@H](O)CCCC(=O)O [Lipoxin A4] | led to recruitment of fluid matrix

same assay, conditions: filter paper with 100 nM solution on liver surface for 5 minutes, absence of wounds; listed as Lipoxin

Row | SMILES | recruitment / deposition of fluid matrix after local application
41 | CCCCC[C@H](O)/C=C/C=C\C=C\C=C\[C@@H](O)[C@@H](O)CCCC(=O)O [Lipoxin A4] | can be directed with local application

same assay, conditions: inhibitors 10 μM i.p. 2 hours before surgery, organs harvested after 24 h, FITC in wound lysates

Row | SMILES | ECM (matrix) movement, liver
42 | O=CN1CC/C(=C\c2ccc3c(c2)OCO3)C1=O [KNK437] | decreased

same assay, conditions: mouse, in vivo, ip

Row | SMILES | ECM (matrix) movement, liver
43 | N#CCCN [BAPN] | increased

tested on: peritoneum; assay: ECM (matrix) movement into peritoneal wounds after laparotomy injury, NHS-FITC matrix labelling; format: in vivo, mouse; details: inhibitors 10 μM i.p. 2 hours before surgery, organs harvested after 24 h, FITC in wound lysates

Row | SMILES | ECM (matrix) movement, peritoneum
44 | O=C1c2ccc([N+](=O)[O-])cc2N=C2N(c3ccccc3)CC[C@@]12O [(S)-nitro-Blebbistatin] | decreased
45 | CC(C)C[C@H](NC(=O)[C@@H](O)[C@H](N)Cc1ccccc1)C(=O)O [BESTATIN] | decreased
46 | N#CC(=C(O)c1ccc(Cl)cc1Cl)c1nc2cc(Cl)ccc2c(=O)[nH]1 [Ciliobrevin D] | decreased
47 | O=CN1CC/C(=C\c2ccc3c(c2)OCO3)C1=O [KNK437] | decreased

same assay, conditions: livers and peritoneas compared

Row | SMILES | organ specificity of the effect on matrix currents
48 | O=C1c2ccc([N+](=O)[O-])cc2N=C2N(c3ccccc3)CC[C@@]12O [(S)-nitro-Blebbistatin] | effected matrix currents of only one organ
49 | N#CC(=C(O)c1ccc(Cl)cc1Cl)c1nc2cc(Cl)ccc2c(=O)[nH]1 [Ciliobrevin D] | effected matrix currents of only one organ

same assay, conditions: mouse, in vivo, ip

Row | SMILES | ECM (matrix) movement, peritoneum
50 | N#CCCN [BAPN] | increased
